Experimental data published in patent US7977045B2, “Aqueous-based pharmaceutical composition” (Aventis Pharmaceuticals Inc., priority 1996, dated 2011).

Test: Positron emission tomography of nasal deposition and retention of TAA after spraying the composition
Type: in vivo, human
Method: A dose of the composition can be delivered to a human patient by spraying the composition into each of the patient's nasal cavities. For dose delivery, the pre-compression metering pump (Valois VP7/100S) is placed in a patient's nostril and is then actuated by the patient, resulting in a spray into the nasal cavity. After initial priming, each actuation of the pump delivers from the nasal actuator about 100 mg of composition containing about 55 mcg of TAA. Each bottle of composition will provide at least about 120 metered doses. For the exemplified compositions, the recommended once-daily dosing for adults and children 12 years and older begins at about 220 mcgs of TAA, equivalent to two sprays in each nostril.
A composition comprising the formulation of Examples 1 and 2 was administered to two volunteer patients. Post administration, the patients were evaluated by positron emission tomography in order to determine 1) the amount of time it took for the maximum dose of the TAA medicament to be delivered to various regions of interest within the nasal cavity, and 2) the amount of TAA medicament deposited on the regions of interest over a two hour time period. For purposes of the evaluation, the volume of the head region was segmented into 104 distinct regions of interest. […] The results of evaluation indicate a rapid distribution of the TAA medicament to the target regions of the nose.
The evaluation included also a determination of the percentage of the TAA medicament remaining on the target sites two hours after the it was administered to each of the patients. This percentage was determined by dividing the amount remaining in each region of interest by the total amount remaining in the 104 regions of interest.

[1] = first volunteer, at maximum concha contact
[2] = first volunteer, over a two-hour period
[3] = first volunteer, two hours post administration, share of total remaining in 104 regions
[4] = other (second) volunteer, post dose
[5] = second volunteer, two hours post administration

CC1(C)O[C@@H]2C[C@H]3[C@@H]4CCC5=CC(=O)C=C[C@]5(C)[C@@]4(F)[C@@H](O)C[C@]3(C)[C@]2(C(=O)CO)O1 [TAA, triamcinolone acetonide]
dose directly deposited on the target sites (frontal cavity, frontal sinus, maxillary sinuses, superior and inferior concha) (both volunteers, amount in region divided by total amount remaining in the 104 regions of interest, two hours): greater than 85% | maximum amount of TAA medicament in contact with the frontal cavity region (first volunteer): about 41% | maximum amount of the dose deposited into the frontal sinus (first volunteer): approximately 3.5% | maximum amount of the dose deposited into the maxillary sinuses (first volunteer): ~3.9% | time to clearance of TAA medicament from the frontal sinus (first volunteer): ≤ 1 h | amount of total dose in contact with the inferior concha [1]: About 46% | amount of total dose in contact with the superior concha [1]: about 19% | amount of total dose remaining in the concha tissues (constant value) (first volunteer, final time period): 3.4-4% | maximum amount of TAA medicament in contact with the concha regions, % of total dose delivered to the nose (first volunteer, intranasal spray of formulation of Examples 1 and 2, PET): about 65% | dose deposited in the maxillary sinus region [2]: about 3% | dose deposited on the frontal sinus [2]: about 1.2% | time of maximum amount in contact with the concha regions (first volunteer, post dose): about 45 seconds | time of maximum amount in contact with the frontal cavity region (first volunteer, post dose): about 45 seconds | time of maximum deposit in the frontal and maxillary sinuses (first volunteer, post dose): ≤ 30 s | medicament still present in the maxillary sinuses (first volunteer, two hour acquisition sampling time): approximately 1% | total TAA medicament remaining deposited in the frontal cavity (first volunteer, two hours after administration, share of total remaining in 104 regions): about 47.9% | amount remaining in the concha region (inferior plus superior) (first volunteer, two hours post administration): about 36.4% | total medicament deposited in the inferior concha region [3]: about 27.8% | total medicament deposited in the superior concha region [3]: about 8.6% | amount in the frontal cavity region (constant level) (first volunteer, two hours post-dose): about 12% | sum of percentages remaining on the target sites (dose deposited directly onto target tissues) (first volunteer, two-hour serial sampling period): about 88.5% | maximum amount deposited in the frontal sinus (other (second) volunteer): around 3.5% | maximum amount deposited in the maxillary sinus (other (second) volunteer): about 2% | maximum amount of TAA medicament in contact with the frontal cavity, % of total dose delivered to the nose (other (second) volunteer): about 55% | part of the maximum concha amount associated with the inferior concha (other (second) volunteer): about 75% | part of the maximum concha amount associated with the superior concha (other (second) volunteer): about 25% | administered dose still in contact with the concha regions (other (second) volunteer, about two hours post-administration): 6-8% | dose still resident in the frontal/nasal cavity (other (second) volunteer, after two hours): approximately 22% | maximum amount of the drug in contact with the concha regions, % of total dose delivered to the nose (other (second) volunteer, intranasal spray of formulation of Examples 1 and 2, PET): about 53% | time of maximum amount in contact with the frontal cavity [4]: ≤ 30 s | time of maximum amount in contact with the inferior concha region [4]: about 3.5 minutes | time of maximum amount in contact with the superior concha region [4]: about 25 seconds | time of maximum deposit in the maxillary and frontal sinuses [4]: ≤ 30 s | sum of percentages remaining on the target sites (dose deposited directly onto target tissues) (second volunteer, two hour serial sampling period): about 85.6% | dose in the frontal sinus [5]: about 1.6% | dose in the maxillary sinus [5]: about 1.4% | dose remaining deposited on the inferior concha [5]: About 23.5% | dose remaining deposited on the superior concha [5]: about 6.9% | total percentage of the dose remaining deposited on the concha region [5]: about 30.4% | dose remaining deposited in the frontal cavity (second volunteer, two hours post-drug administration, share of total remaining in 104 regions): about 52.2%
